Broadly, the IC50 is the point on the concentration scale where inhibition reaches its midpoint.

For this test, the target named is TRKA (Homo sapiens (Human), UniProt P04629). Nature of the test: Isolated TRK enzyme assay (HTRF KinEASE-TK), PV3144 TrkA enzyme assay. The class given is biochemical. The conditions noted are these: arithmetic mean where more than one reading. How it is done: Isolated TRK Enzyme assays use the HTRF KinEASE-TK kit (Cisbio Cat#62TK0PEJ) with recombinant His-tagged cytoplasmic domains of each TRK receptor sourced from Invitrogen (see table below). This activity-assay measures the phosphorylation of tyrosine residues within a substrate from the HTRF kit which has been validated by Cisbio for a variety of tyrosine kinases including the TRK receptors.
TRKA, sequence (P04629 441-796): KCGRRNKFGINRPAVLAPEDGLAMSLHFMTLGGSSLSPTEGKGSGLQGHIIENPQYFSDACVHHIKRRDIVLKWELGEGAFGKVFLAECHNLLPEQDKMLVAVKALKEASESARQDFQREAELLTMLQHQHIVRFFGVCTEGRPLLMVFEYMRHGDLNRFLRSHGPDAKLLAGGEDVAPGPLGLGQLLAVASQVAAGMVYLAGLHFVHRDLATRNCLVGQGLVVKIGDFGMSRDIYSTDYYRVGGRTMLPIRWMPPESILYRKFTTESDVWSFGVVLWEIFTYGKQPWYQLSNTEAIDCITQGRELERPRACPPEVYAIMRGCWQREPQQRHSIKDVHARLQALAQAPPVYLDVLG
0.5 mM stock solutions of test compounds are prepared and serially diluted in 100% DMSO. A standard curve using the compound of Example 135 disclosed in WO2005/116035 of 150 uM is also prepared on each test plate. High percentage effect (HPE) is defined by 150 uM (using the compound of Example 135 as disclosed in WO2005/116035) and 0% effect (ZPE) is defined by 100% DMSO. Greiner low volume black plates containing 0.2 ul of serially diluted compound, standard and HPE/ZPE are created using the Bravo nanoliter dispenser.
1× enzyme buffer is prepared from 5× Enzymatic Buffer from the Cisbio KinEASE TK kit using MilliQ water. The buffer is then supplemented with 10 mM MgCI and 2 mM DTT (both from Sigma). In the case of TRKB, the buffer is also supplemented with 125 nM Supplement Enzymatic Buffer (SEB) from the Cisbio kit.
2× FAC of enzyme and 2× FAC ATP diluted in 1× complete enzyme buffer is incubated at room temperature for 20 minutes to preactivate the enzyme. Following this preactivation step, 5 ul/well of enzyme+ATP mix is added using a Multidrop Micro to the assay plate, spotted with 0.2 ul 100% DMSO compound. This is left for 20 mins at room temperature before adding 5 ul of 2 uM TK-substrate-Biotin (from the Cisbio kit) diluted in 1× enzyme buffer (1 uM FAC) using the Multidrop Micro. The reaction is incubated at room temperature for the optimized assay reaction time (see table). The reaction is stopped by adding 10 ul/well HTRF Detection Buffer containing 0.25 uM Streptavidin-XL665 (0.125 uM FAC) and 1:200 TK Antibody-Cryptate using a Multidrop.
After the Detection Reagent addition, plates are covered and incubated at room temperature for 60 minutes. HTRF signal is read using an Envision reader, measured as a ratio of emissions at two different wavelengths, 620 nm and 665 nm. […] Test compound data are expressed as percentage inhibition defined by HPE and ZPE values for each plate. Percentage inhibition in the presence of test compound is plotted against compound concentration on a log scale to determine an IC50 from the resultant sigmoid curve.
Where more than one reading was taken, the arithmetic mean is presented.

Regarding `CC(C)(CO)n1cc(C(=O)c2cncc(NC(=O)Cc3cccc(C(F)(F)F)c3)c2)c2cncc(F)c21` [Example 5, N-{5-[7-Fluoro-1-(2-hydroxy-1,1-dimethyl-ethyl)-1H-pyrrolo[3,2-c]pyridine-3-carbonyl]-pyridin-3-yl}-2-(3-trifluoromethyl-phenyl)-acetamide], half-maximal inhibition (IC50) was put at 0.00441 µM.
On to `CC(C)n1cc(C(=O)c2cncc(NC(=O)Cc3cccc(Cl)c3)c2)c2cnccc21` [Example 126, 2-(3-chlorophenyl)-N-(5-{[1-(propan-2-yl)-1H-pyrrolo[3,2-c]pyridin-3-yl]carbonyl}pyridin-3-yl)acetamide], for which half-maximal inhibition (IC50) required 0.0286 µM.
The compound `CC(C)n1cc(C(=O)c2cc(NC(=O)Cc3ccc(Cl)cn3)ccn2)c2cnccc21` [Example 55, 2-(5-chloropyridin-2-yl)-N-(2-{[1-(propan-2-yl)-1H-pyrrolo[3,2-c]pyridin-3-yl]carbonyl}pyridin-4-yl)acetamide] came in with a half-maximal inhibitory concentration (IC50) of 0.0738 µM.
The figure for `O=C(Cc1ccc(F)cc1)Nc1cc(C(=O)c2cn(CCO)c3ccncc23)ccn1` [Example 148, 2-(4-fluorophenyl)-N-(4-{[1-(2-hydroxyethyl)-1H-pyrrolo[3,2-c]pyridin-3-yl]carbonyl}pyridin-2-yl)acetamide] is 0.424 µM; for `CC(C)n1cc(C(=O)c2ccnc(NC(=O)Cc3coc(C4CC4)n3)c2)c2cnccc21` [Example 189, 2-(2-cyclopropyl-1,3-oxazol-4-yl)-N-(4-{[1-(propan-2-yl)-1H-pyrrolo[3,2-c]pyridin-3-yl]carbonyl}pyridin-2-yl)acetamide] it is 0.0136 µM; for `CC(CO)n1cc(C(=O)c2cncc(NC(=O)Cc3ccc(Cl)cn3)c2)c2cncc(F)c21` (single isomer, unassigned) [Example 225, 2-(5-chloropyridin-2-yl)-N-(5-{[7-fluoro-1-(1-hydroxypropan-2-yl)-1H-pyrrolo[3,2-c]pyridin-3-yl]carbonyl}pyridin-3-yl)acetamide] it is 0.0463 µM.
For `O=C(Cc1ccc(Cl)cc1)Nc1cc(C(=O)c2cn(CCO)c3ccncc23)ccn1` [Example 146, 2-(4-chlorophenyl)-N-(4-{[1-(2-hydroxyethyl)-1H-pyrrolo[3,2-c]pyridin-3-yl]carbonyl}pyridin-2-yl)acetamide], the IC50 was 0.0594 µM.
As for “2-(3-methoxyphenyl)-N-(5-{[1-(propan-2-yl)-1H-pyrrolo[3,2-c]pyridin-3-yl]carbonyl}pyridin-3-yl)acetamide [Example 129]”, the figure is 0.0962 µM; as for `CC(C)n1cc(C(=O)c2ccnc(NC(=O)Cc3ccccc3OC(F)(F)F)c2)c2cnccc21` [Example 182, N-(4-{[1-(propan-2-yl)-1H-pyrrolo[3,2-c]pyridin-3-yl]carbonyl}pyridin-2-yl)-2-[2-(trifluoromethoxy)phenyl]acetamide], 0.0261 µM; as for `CC(C)n1cc(C(=O)c2cncc(NC(=O)Cc3coc(C4CC4)n3)c2)c2cnccc21` [Example 43, 2-(2-cyclopropyl-1,3-oxazol-4-yl)-N-(5-{[1-(propan-2-yl)-1H-pyrrolo[3,2-c]pyridin-3-yl]carbonyl}pyridin-3-yl)acetamide], 0.118 µM.
`Cc1cc(C(F)(F)F)nn1CC(=O)Nc1cncc(C(=O)c2cn(C(C)CO)c3ccncc23)c1` (single isomer, unassigned) [Example 63, N-(5-{[1-(1-hydroxypropan-2-yl)-1H-pyrrolo[3,2-c]pyridin-3-yl]carbonyl}pyridin-3-yl)-2-[5-methyl-3-(trifluoromethyl)-1H-pyrazol-1-yl]acetamide] displayed a half-maximal inhibitory concentration (IC50) of 0.0288 µM.
For `Cc1ccn(CC(=O)Nc2cncc(C(=O)c3cn(C(C)C)c4ccncc34)c2)n1` [Example 134, 2-(3-methyl-1H-pyrazol-1-yl)-N-(5-{[1-(propan-2-yl)-1H-pyrrolo[3,2-c]pyridin-3-yl]carbonyl}pyridin-3-yl)acetamide], half-maximal inhibition (IC50) required 0.284 µM.

These data come from patent publication US9163021B2, “Pyrrolo[3,2-c]pyridine tropomyosin-related kinase inhibitors” (Pfizer Limited, priority 2012, dated 2015).
